Experimental data reported in US8541441B2, “Selective glycosidase inhibitors and uses thereof” (Simon Fraser University, priority 2008, dated 2013).
Entries after “also recorded” stand apart in the source; their conditions may differ.

Tests used:
O-GlcNAcase = molecular target: T1, O-GlcNAcase (Homo sapiens, UniProt O60502); assay: Assay for determination of K1 values for inhibition of O-GlcNAcase activity; assay type: biochemical; conditions: pNP-GlcNAc 0.5 mM, PBS buffer pH 7.4, 37° C., Dixon plots
T1 sequence (O60502 1-916): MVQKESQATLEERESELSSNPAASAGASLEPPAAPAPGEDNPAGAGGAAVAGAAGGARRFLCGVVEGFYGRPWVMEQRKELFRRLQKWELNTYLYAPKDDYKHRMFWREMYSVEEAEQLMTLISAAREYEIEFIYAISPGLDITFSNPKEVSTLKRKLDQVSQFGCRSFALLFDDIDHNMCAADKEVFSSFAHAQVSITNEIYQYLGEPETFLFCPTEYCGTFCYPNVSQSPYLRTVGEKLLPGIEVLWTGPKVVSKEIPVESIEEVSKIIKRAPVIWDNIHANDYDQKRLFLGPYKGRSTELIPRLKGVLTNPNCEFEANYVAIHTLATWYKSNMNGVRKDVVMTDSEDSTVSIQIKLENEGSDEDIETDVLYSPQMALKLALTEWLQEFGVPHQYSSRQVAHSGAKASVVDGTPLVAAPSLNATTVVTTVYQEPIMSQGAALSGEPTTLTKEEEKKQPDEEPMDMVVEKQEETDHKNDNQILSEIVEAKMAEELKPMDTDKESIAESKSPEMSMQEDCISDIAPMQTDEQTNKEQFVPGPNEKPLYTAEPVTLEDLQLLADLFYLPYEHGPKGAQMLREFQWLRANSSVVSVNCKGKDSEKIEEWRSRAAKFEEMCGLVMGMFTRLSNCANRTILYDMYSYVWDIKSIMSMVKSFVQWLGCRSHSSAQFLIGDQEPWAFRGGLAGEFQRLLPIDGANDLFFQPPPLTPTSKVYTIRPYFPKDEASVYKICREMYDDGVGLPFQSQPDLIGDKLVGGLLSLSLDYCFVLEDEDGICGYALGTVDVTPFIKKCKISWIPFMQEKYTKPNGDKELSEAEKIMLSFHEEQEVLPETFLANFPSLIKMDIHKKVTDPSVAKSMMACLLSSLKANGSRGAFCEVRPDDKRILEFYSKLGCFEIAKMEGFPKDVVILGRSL
Method: Assay for Determination of […] for Inhibition of O-GlcNAcase Activity Experimental procedure for kinetic analyses: Enzymatic reactions were carried out in PBS buffer (pH 7.4) using pNP-GlcNAc as a substrate (0.5 mM) and monitored continuously at 37° C. at 400 nm using a Cary 3E UV-VIS spectrophotometer equipped with a Peltier temperature controller. Reactions were pre-heated in a 500 μl, quartz cuvette for approximately 5 minutes followed by addition of 10 μL enzyme via syringe (final enzyme concentration 0.002 mg/mL). Reaction velocities were determined by linear regression of the linear region of the reaction progress curve between the first and third minutes. An inhibitor concentration range of ⅕ to 5 times K1 was used in each case. […] All K1 values are determined using linear regression of Dixon plots.

3T3-L1 cells = assay: Western blot of cellular levels of O-GlcNAc-modified proteins in 3T3-L1 cells; assay type: cell-based; conditions: 100 μM, 16 hours, anti-O-GlcNAc mAb CTD110.6, compared to control
Method: FIGS. 1A-B show Western blots of proteins from 3T3-L1 cells cultured for 16 hours in the presence or absence of 100 μM of Compound 1 (Table 1). Incubation of 3T3-L1 cells with Compound 1 causes an increase in cellular levels of O-GlcNAc-modified proteins; plus signs (“+”) indicate presence of Compound 1, while minus signs (“−”) indicate absence of Compound 1. FIG. 1A: Western blot analysis of cellular levels of O-GlcNAc-modified proteins using anti-O-GlcNAc MAb CTD 110.6 followed by an anti-mouse IgG-HRP conjugate.
Western Blot Analyses: 3T3-L1 adipocytes were treated with Compound 1 at 100 μM for 16 hours. Cells were harvested by adding 400 μL of 1% SDS with 50 mM beta-ME, boiling this for 10 minutes, using these lysates in subsequent Western blots. Briefly, samples were separated by SDS-PAGE (10% gels), transferred to nitrocellulose membrane (Bio-Rad), blocked for one hour at room temperature (RT) with 1% bovine serum albumin (BSA) in PBS containing 0.1% Tween-20 (PBS-T) and then subsequently probed with the appropriate primary antibody delivered in 1% BSA in PBS-T for overnight at 4° C. […]

`CC(=O)N[C@H]1CN2CC[C@H](O)[C@@H]2[C@@H](O)[C@@H]1O` [Compound 1] was tested, and the Ki (O-GlcNAcase) was 670 nM and the “cellular levels of O-GlcNAc-modified proteins” value (3T3-L1 cells) was “Marked increases; also recorded: increase”.
